Measured values taken from US20160324884A1, “TREATMENT OF DIABETES WITH PENTACYCLIC TRITERPENOID SAPONIN COMPOUNDS FROM SZECHUAN MELANDIUM ROOT” (priority 2013, published 2016).
Entries after “also recorded” stand apart in the source; their conditions may differ.

Legend:
normal ICR mice = assay: Glycemia in normal ICR mice (Example 4); assay type: in vivo; conditions: 2.0 mg/kg Sc, vs control group
Source text: 40 male ICR mice (20-22g, License NO. SCXK (BJ) 2011-0004, Beijing SPF Experimental Animal Technology Co. Ltd.) were adaptively bred for one week, and then used in the following experiment.
Animals were housed individually in wood-chip-bedded plastic cages and fed the standard laboratory chow. All the animals had ad libitum access to food and water.
40 ICR mice were adaptively bred for 1 week, and then randomly assigned into 4 groups: Model, Compound (1), Compound (2) and metformin group, 10 mice per group. All the animals were fed with normal food. Mice in the control group were hypodermically injected with sterile water. The treated groups were subcutaneously injected with Compounds (1) and (2), respectively. And the positive group was administrated metformin by gavage. All the animals were administrated at 9 am for 2 weeks, and the dose volume is 10 ml/kg BW.
Compound (1) and (2) were respectively dissolved into sterile water, and sterilized with filtration for Sc. The metformin was dissolved into sterile water for lg. to the positive control group. Mice in the control group were injected with sterile water (10 ml/kg BW), Sc. All the animals were treated at 9 am for 2 weeks (14 days).
Blood detection: Blood glucose was measured weekly. Overnight fasting glycemia was measured by One Touch ULTRA Glucometer (LifeScan Johnson and Johnson, USA) for the tail blood test.
End of the experiment: After mice being administrated for 2 weeks (14 days), the experiment was terminated.

KK^Ay mice [1] = assay: Body weight, food and water intake in KK^Ay mice (Example 3); assay type: in vivo; conditions: vs model group
Source text: 60 male KK^Ay mice (12 weeks of age, License NO. SCXK (BJ) 2009-0015, Beijing Huafukang Biology Technology Co. Ltd.) and 10 normal male C57BL/6 mice (12 weeks of age, License NO. SCXK (BJ) 2009-0015, Beijing Huafukang Biology Technology Co. Ltd.) were adaptively bred for one week, and then used in the following experiment.
The animals were housed individually in wood-chip-bedded plastic cages. Germ-free and high-fat diets (Beijing Huafukang Biology Technology Co. Ltd.) were used to feed the KK^Ay mice. All the animals had free access to food and water.
(§1) 60 KK^Ay mice were adaptively bred for 1 week, and then randomly assigned into 6 groups: Model group, Compound (1) group, Compound (2) group, Compound (3) group, Compound (4) group, and metformin group, 10 mice per group. 10 normal C57BL/6 mice were used for the control group. KK^Ay mice were in a high-fat diet, and the control normal mice were in a normal control diet. The control and model groups were hypodermically injected with sterile water, the 6 medicated groups mice were subcutaneously injected with […] Wacao saponins, (Compounds (1), (2), (3) and (4)) respectively, and the positive group was administered metformin by gavage. All mice were administrated at 9 am for 2 weeks and the administration volume is 10 ml/kg BW.
(§2) The body weight, food and water intake of each mouse was measured and recorded weekly throughout the course of the experiment. At the end of the experiment, collected the blood and separated serum, fasting blood glucose, insulin levels and insulin sensitivity index (ISI) were measured or calculated in each group. Liver, skeletal muscles of mice in each group were taken and weighed for detecting glycogen levels of the hepatic and muscles after mice being killed.
(§3) Compound (1), (2), (3) and (4) were respectively dissolved into sterile water, and sterilized with filtration for Sc. to the medication groups. The metformin was dissolved into sterile water for lg. to the positive control group. Control and model groups animals were injected with sterile water (10 ml/kg BW), Sc. All the animals were treated daily at 9 am for 2 weeks (14 days).
Measurement of food and water intake: 24 hours' food and water intake were measured by gravimetry once a week. It should be paid attention to recycling leakage of small forage into the feed box to ensure the accuracy of food intake.
Determination of body weight: The body weight of mice was measured and recorded once a week.
Results are shown as means±SD. Statistical analysis data were analyzed by using SPSS 10.0 software. Data were evaluated with analysis of variance.

KK^Ay mice [2] = assay: Hepatic and muscle glycogen in KK^Ay mice (Example 3); assay type: in vivo; conditions: 2.0 mg/kg Sc
Source text: as §1, §2, §3
Blood detection: Blood glucose was measured weekly. Overnight fasting glycemia level was measured with One Touch ULTRA Glucometer for the tail blood test. At the end of the experiment, blood serum was collected for measuring levels of fasting blood glucose and insulin, and the insulin sensitivity index (ISI) was calculated. At the same time, hepatic tissues and skeletal muscles of mice were taken out to determine levels of hepatic and muscle glycogen by detection kits.

T2DM rats = assay: Fasting glycemia in T2DM model rats (high-fat emulsion + STZ, Example 5); assay type: in vivo, SD rats
Source text: 50 male SD rats (180-200 g, License NO. SCXK (BJ) 2011-0004, Beijing SPF Experimental Animal Technology Co. Ltd.) were adaptively bred for 1 week, and then used in the pharmacological experiment.
Animals were housed individually in wood-chip-bedded plastic cages and fed a standard laboratory chow. All the animals had ad libitum access to food and water.
50 SD rats were adaptively bred for 1 week, and then randomly assigned into 5 groups: The control group, model group, Compound (1) group, Compound (2) group and glucobay group (the positive group), 10 rats per group. All the animals were in a standard laboratory diet. Control and model group animals were hypodermically injected with sterile water, test compound treatment groups were subcutaneously injected with the Compounds (1) and (2), and the positive group was administrated glucobay solution by gavage. All the animals were administrated at 9 am for 2 weeks, and the dose volume is 10 ml/kg BW.
The Compounds (1) and (2) were dissolved into sterile water, and sterilized with filtration, Sc. Glucobay was dissolved into sterile water, lg. Animals in the control and model groups were injected with sterile water (10 ml/kg BW), Sc. All the animals were treated at 9 am for 2 weeks (14 days).
All rats except the control group were administrated intragastrically with the high-fat emulsion (10 ml/kg) and weighed the body weight weekly. After weeks of administration, rats were intraperitoneally injected with streptozotocin (STZ, dissolved in citric acid-citrate sodium solution, pH 4.2, freshly prepared and used instantly, and store away from light) (30mg/kg). 4 days later, blood glucose level in rats was measured by tail blood test. Diabetes was defined as fasting blood glucose level>11.1 mmol/Lin in this experiment.
The blood glucose level was measured before and after administration of the treatment compounds for 2 weeks, respectively. The animals were fasted overnight and tail blood samples were taken. Fasting glycemia was measured by using One Touch ULTRA Glucometer or kits.

CC(=O)OC1C(OC(=O)/C=C/c2ccc(C)cc2)C(C)OC(OC(=O)[C@]23CCC(C)(C)C[C@H]2C2C=C[C@@H]4[C@@]5(C)CC[C@H](OC6OC(C(=O)O)C(O)C(OC7OCC(O)C(O)C7O)C6OC6OC(CO)C(O)C(O)C6O)[C@@](C)(C=O)[C@@H]5CC[C@@]4(C)[C@]2(C)C[C@H]3O)C1OC1OC(C)C(O)C(O)C1O (some centres unmarked) [Compound (1), sinocrassuloside VI]
glycemia level (normal ICR mice; after 1 week): no significant difference was found except the Compound (1) group (p<0.05, vs. control group) | glycemia level (normal ICR mice; after 2 weeks): decreased much obviously | body weight growth (KK^Ay mice [1]; 2.0 mg/kg BW Sc, 2 weeks): best effect of resistance on body weight growth | food intake (KK^Ay mice [1]; after 1 week, compounds 2.0 mg/kg Sc, metformin 500 mg/kg lg): decreased obviously | enhancement of glycogen storage (KK^Ay mice [2]; 2 weeks, comparison among compounds and with metformin, 2 mg/kg): strongest activity of the function; also recorded: almost comparable to metformin | muscle glycogen level (KK^Ay mice [2]; after 2 weeks, vs model group): stronger efficacy in raising levels muscle glycogen | anti-hyperglycemia efficacy compared with glucobay (T2DM rats; 4.0 mg/kg Sc vs glucobay 20 mg/kg lg, 2 weeks): much stronger than that of the glucobay | glycemia level (T2DM rats; 4.0 mg/kg Sc, after 2 weeks, vs model group): significantly decreased
